The values below come from ChEMBL document CHEMBL2074082, “Characterization of the monocarboxylate transporter 1 expressed in Xenopus laevis oocytes by changes in cytosolic pH” (Biochem J, 1998).

Test [1] addresses T1, Monocarboxylate transporter 1 (Rattus norvegicus) (UniProt P53987).
T1 sequence (whole entry): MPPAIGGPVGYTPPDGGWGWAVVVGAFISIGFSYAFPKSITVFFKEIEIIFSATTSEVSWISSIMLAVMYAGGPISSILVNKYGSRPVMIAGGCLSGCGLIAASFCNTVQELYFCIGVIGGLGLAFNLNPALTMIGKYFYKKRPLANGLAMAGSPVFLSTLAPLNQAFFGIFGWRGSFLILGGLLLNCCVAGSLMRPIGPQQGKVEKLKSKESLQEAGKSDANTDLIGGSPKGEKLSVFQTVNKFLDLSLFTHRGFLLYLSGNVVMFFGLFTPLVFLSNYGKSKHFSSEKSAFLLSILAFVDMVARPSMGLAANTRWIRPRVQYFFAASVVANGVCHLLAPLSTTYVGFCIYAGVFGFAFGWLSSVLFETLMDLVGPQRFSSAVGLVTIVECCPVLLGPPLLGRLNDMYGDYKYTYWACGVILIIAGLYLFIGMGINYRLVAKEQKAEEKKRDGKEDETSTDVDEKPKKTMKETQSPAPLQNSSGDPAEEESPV
The test is described as follows: TP_TRANSPORTER: inhibition of lactate uptake(pHi charge) in Xenopus laevis oocytes. As to conditions: Oocyte. Format: functional, cell-based.

The target of test [2] is T1, Monocarboxylate transporter 1 (Rattus norvegicus). The test can be described thus: TP_TRANSPORTER: change in intracellular pH(pHi)value in Xenopus laevis oocytes. The format is functional, cell-based. As to conditions: Oocyte.

Turning to `N#C/C(=C\c1ccc(O)cc1)C(=O)O`, the Activity result in test [1] was “inhibitor [+]”.

As to `CC(O)CC(=O)O` (racemic), in test [2], the Activity entry is “substrate [+]”.

On to `CC(=O)CC(=O)O`, for which, in test [2], the Activity entry is “substrate [+]”.
